# Test results as given in patent publication US9139566B2, “Fluorine-18 and carbon-11 labeled radioligands for positron emission tomography (PET) imaging for LRRK2” (Genentech, Inc., priority 2011, dated 2015).
# Target: LRRK2 (Homo sapiens, UniProt Q5S007)
# Test: LRRK2 affinity (Ki)
# Type: binding
# Details: LRRK2 affinity (micromolar), Table 1
# Sequence of LRRK2 (Q5S007 whole entry): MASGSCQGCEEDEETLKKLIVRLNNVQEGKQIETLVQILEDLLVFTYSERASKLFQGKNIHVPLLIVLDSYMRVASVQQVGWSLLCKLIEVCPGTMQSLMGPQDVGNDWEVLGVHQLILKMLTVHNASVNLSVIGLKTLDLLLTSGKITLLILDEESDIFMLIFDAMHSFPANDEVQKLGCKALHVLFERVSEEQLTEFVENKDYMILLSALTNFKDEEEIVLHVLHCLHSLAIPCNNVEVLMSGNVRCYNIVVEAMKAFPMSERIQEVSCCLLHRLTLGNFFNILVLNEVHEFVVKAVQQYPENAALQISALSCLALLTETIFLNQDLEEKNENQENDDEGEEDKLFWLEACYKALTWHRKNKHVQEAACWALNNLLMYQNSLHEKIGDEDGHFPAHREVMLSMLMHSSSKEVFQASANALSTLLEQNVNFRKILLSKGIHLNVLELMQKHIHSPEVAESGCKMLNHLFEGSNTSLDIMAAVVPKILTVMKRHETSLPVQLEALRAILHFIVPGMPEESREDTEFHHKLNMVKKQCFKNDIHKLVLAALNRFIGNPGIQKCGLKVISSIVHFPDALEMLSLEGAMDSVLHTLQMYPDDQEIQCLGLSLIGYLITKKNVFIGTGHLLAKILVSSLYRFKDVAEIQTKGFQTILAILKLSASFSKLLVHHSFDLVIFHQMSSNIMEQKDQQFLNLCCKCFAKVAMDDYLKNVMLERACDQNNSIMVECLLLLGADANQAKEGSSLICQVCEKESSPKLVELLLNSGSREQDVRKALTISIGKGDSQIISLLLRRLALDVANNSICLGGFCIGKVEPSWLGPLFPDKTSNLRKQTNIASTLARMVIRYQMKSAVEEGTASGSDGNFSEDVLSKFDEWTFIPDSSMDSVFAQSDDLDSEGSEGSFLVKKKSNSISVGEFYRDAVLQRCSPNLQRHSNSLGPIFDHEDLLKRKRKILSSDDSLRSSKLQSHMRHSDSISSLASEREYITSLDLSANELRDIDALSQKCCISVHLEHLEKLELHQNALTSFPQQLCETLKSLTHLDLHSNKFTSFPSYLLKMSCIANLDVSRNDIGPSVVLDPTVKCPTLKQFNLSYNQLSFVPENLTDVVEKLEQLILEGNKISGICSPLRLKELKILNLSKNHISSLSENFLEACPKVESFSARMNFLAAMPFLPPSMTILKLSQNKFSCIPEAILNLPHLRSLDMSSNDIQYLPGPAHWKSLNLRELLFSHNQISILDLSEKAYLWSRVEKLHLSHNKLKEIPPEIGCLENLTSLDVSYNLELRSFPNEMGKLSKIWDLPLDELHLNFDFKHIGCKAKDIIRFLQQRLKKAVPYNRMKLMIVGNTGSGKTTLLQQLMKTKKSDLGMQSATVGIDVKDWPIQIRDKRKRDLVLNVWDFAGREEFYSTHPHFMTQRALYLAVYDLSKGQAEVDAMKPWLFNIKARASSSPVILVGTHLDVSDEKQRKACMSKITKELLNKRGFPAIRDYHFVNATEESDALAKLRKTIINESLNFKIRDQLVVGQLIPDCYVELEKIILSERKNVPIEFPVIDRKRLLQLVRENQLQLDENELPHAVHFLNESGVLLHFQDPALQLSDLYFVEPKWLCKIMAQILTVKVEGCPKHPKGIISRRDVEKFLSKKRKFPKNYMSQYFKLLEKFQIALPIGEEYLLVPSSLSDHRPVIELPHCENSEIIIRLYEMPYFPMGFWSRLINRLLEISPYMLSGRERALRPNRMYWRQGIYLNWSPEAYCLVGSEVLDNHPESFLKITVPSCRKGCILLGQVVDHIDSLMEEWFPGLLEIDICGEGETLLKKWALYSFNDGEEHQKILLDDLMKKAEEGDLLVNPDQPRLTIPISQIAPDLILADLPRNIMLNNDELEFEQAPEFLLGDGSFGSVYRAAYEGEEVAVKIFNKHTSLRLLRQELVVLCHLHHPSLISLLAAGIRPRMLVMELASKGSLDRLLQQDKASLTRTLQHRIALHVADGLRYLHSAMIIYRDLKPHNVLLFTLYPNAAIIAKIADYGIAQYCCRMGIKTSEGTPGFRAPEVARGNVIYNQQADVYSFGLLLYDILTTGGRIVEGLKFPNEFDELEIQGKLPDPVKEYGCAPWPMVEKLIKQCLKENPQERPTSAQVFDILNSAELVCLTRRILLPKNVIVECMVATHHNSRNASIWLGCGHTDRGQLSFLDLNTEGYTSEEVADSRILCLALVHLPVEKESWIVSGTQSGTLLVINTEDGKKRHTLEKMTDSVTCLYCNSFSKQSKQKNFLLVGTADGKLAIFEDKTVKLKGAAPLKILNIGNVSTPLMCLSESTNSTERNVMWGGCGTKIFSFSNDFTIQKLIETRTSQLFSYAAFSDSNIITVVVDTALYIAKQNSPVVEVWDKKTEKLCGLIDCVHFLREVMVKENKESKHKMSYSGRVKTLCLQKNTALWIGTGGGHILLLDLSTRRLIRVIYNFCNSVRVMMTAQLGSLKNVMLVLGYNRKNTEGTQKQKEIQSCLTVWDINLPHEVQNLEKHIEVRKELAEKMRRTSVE
row,Structure (SMILES),Ki [nM]
1,"CNc1nc(Nc2cc(C)c(C(=O)N3CCOCC3)cc2OCCF)ncc1C(F)(F)F [Compound 13, (5-(2-fluoroethoxy)-2-methyl-4-(4-(methylamino)-5-(trifluoromethyl)pyrimidin-2-ylamino)phenyl)(morpholino) methanone]",2.3
2,"CCNc1nc(Nc2cc(OC)c(C(=O)N3CCC(F)(F)C3)cc2OC)ncc1C(F)(F)F [Compound 8, (3,3-difluoropyrrolidin-1-yl)(4-(4-(ethylamino)-5-(trifluoromethyl)pyrimidin-2-ylamino)-2,5-dimethoxyphenyl)methanone]",1.1
3,"COc1nc(Nc2ccc(CN3CCOCC3)cc2OCCF)ncc1Cl [Compound 25, 5-chloro-N-(2-(2-fluoroethoxy)-4-(morpholinomethyl)phenyl)-4-methoxypyrimidin-2-amine]",12
4,"CNc1nc(Nc2cc(OC)c(C(=O)N3CCCCC3)cc2OCF)ncc1C(F)(F)F [Compound 11, (5-(fluoromethoxy)-2-methoxy-4-(4-(methylamino)-5-(trifluoromethyl)pyrimidin-2-ylamino)phenyl)(piperidin-1-yl)methanone]",1.6
5,"CNc1nc(Nc2cc(F)c(C(=O)N3CCOCC3)cc2OCCF)ncc1C(F)(F)F [Compound 17, (2-fluoro-5-(2-fluoroethoxy)-4-(4-(methylamino)-5-(trifluoromethyl)pyrimidin-2-ylamino)phenyl)(morpholino) methanone]",3.5
6,"COc1nc(Nc2ccc(C(=O)N3CCOCC3)cc2OCCF)ncc1Cl [Compound 28, (4-(5-chloro-4-methoxypyrimidin-2-ylamino)-3-(2-fluoroethoxy)phenyl)(morpholino) methanone]",15
7,"COc1nc(Nc2cnn(C3CCN(CCF)CC3)c2C)ncc1Cl [Compound 32, 5-chloro-N-(1-(1-(2-fluoroethyl)piperidin-4-yl)-5-methyl-1H-pyrazol-4-yl)-4-methoxypyrimidin-2-amine]",21
8,"CNc1nc(Nc2ccc(S(C)(=O)=O)cc2OCCF)ncc1Cl [Compound 27, 5-chloro-N2-(2-(2-fluoroethoxy)-4-(methylsulfonyl)phenyl)-N4-methylpyrimidine-2,4-diamine]",12
9,"CNc1nc(Nc2ccc(S(C)(=O)=O)cc2OCCF)ncc1C(F)(F)F [Compound 15, N2-(2-(2-fluoroethoxy)-4-(methylsulfonyl)phenyl)-N4-methyl-5-(trifluoromethyl)pyrimidine-2,4-diamine]",3.3
10,"CNc1nc(Nc2cnc(N3CCOCC3)cc2OCCF)ncc1C(F)(F)F [Compound 29, N2-(4-(2-fluoroethoxy)-6-morpholinopyridin-3-yl)-N4-methyl-5-(trifluoromethyl)pyrimidine-2,4-diamine]",21
11,"CCNc1nc(Nc2cc(F)c(C(=O)N3CCOCC3)cc2OCCF)ncc1C(F)(F)F [Compound 12, (4-(4-(ethylamino)-5-(trifluoromethyl)pyrimidin-2-ylamino)-2-fluoro-5-(2-fluoroethoxy)phenyl)(morpholino) methanone]",2
12,"CNc1nc(Nc2cc(F)c(CN3CCOCC3)cc2OCCF)ncc1C(F)(F)F [Compound 18, N2-(5-fluoro-2-(2-fluoroethoxy)-4-(morpholinomethyl)phenyl)-N4-methyl-5-(trifluoromethyl)pyrimidine-2,4-diamine]",3.7
13,"CCNc1nc(Nc2cc(OC)c(C(=O)N3CCC(F)(F)C3)cc2OCF)ncc1C(F)(F)F [Compound 6, (3,3-difluoropyrrolidin-1-yl)(4-(4-(ethylamino)-5-(trifluoromethyl)pyrimidin-2-ylamino)-5-(fluoromethoxy)-2-methoxyphenyl)methanone]",0.4
14,"CNc1nc(Nc2ccc(C(=O)N3CCOCC3)cc2OC)ncc1C(F)(F)F [Compound 38, (3-methoxy-4-(4-(methylamino)-5-(trifluoromethyl)pyrimidin-2-ylamino)phenyl)(morpholino) methanone]",2.7
15,"CCNc1nc(Nc2cc(F)c(CN3CCOCC3)cc2OCCF)ncc1C(F)(F)F [Compound 10, N4-ethyl-N2-(5-fluoro-2-(2-fluoroethoxy)-4-(morpholinomethyl)phenyl)-5-(trifluoromethyl)pyrimidine-2,4-diamine]",1.5
16,"CNc1nc(Nc2cc(OC)c(C(=O)N3CCCC3)cc2OCCF)ncc1C(F)(F)F [Compound 20, (5-(2-fluoroethoxy)-2-methoxy-4-(4-(methylamino)-5-(trifluoromethyl)pyrimidin-2-ylamino)phenyl)(pyrrolidin-1-yl)methanone]",4.7
17,"CNc1nc(Nc2cnn(C)c2CF)ncc1C(F)(F)F [Compound 34, N2-(5-(fluoromethyl)-1-methyl-1H-pyrazol-4-yl)-N4-methyl-5-(trifluoromethyl)pyrimidine-2,4-diamine]",24

# Further molecules by falling Ki, results first:
row,Ki [nM],Structure (SMILES)
1,25,"CNc1nc(Nc2cn(C3CCN(CCF)CC3)nc2C)ncc1C(F)(F)F [Compound 33, N2-(1-(1-(2-fluoroethyl)piperidin-4-yl)-3-methyl-1H-pyrazol-4-yl)-N4-methyl-5-(trifluoromethyl)pyrimidine-2,4-diamine]"
2,14,"COc1nc(Nc2ccc(C(=O)N3CCOCC3)cc2OCCF)ncc1Cl [Compound 40, (4-((5-chloro-4-methoxypyrimidin-2-yl)amino)-3-(2-fluoroethoxy)phenyl)(morpholino) methanone]"
3,12,"COc1nc(Nc2ccc(S(C)(=O)=O)cc2OCCF)ncc1Cl [Compound 26, 5-chloro-N-(2-(2-fluoroethoxy)-4-(methylsulfonyl)phenyl)-4-methoxypyrimidin-2-amine]"
4,11,"COc1nc(Nc2cc(C)c(C(=O)N3CCCC3)cc2OCF)ncc1Cl [Compound 24, (4-(5-chloro-4-methoxypyrimidin-2-ylamino)-5-(fluoromethoxy)-2-methylphenyl)(pyrrolidin-1-yl)methanone]"
5,6.6,"CNc1nc(Nc2ccc(CN3CCOCC3)cc2OCCF)ncc1C(F)(F)F [Compound 21, N2-(2-(2-fluoroethoxy)-4-(morpholinomethyl)phenyl)-N4-methyl-5-(trifluoromethyl)pyrimidine-2,4-diamine]"
6,6.5,"CNc1nc(Nc2cc(F)c(C(=O)N3CCCC3)cc2OCF)ncc1C(F)(F)F [Compound 22, (2-fluoro-5-(fluoromethoxy)-4-(4-(methylamino)-5-(trifluoromethyl)pyrimidin-2-ylamino)phenyl)(pyrrolidin-1-yl)methanone]"
7,4.2,"CNc1nc(Nc2cnn(C3CCN(CCF)CC3)c2C)ncc1C(F)(F)F [Compound 31, N2-(1-(1-(2-fluoroethyl)piperidin-4-yl)-5-methyl-1H-pyrazol-4-yl)-N4-methyl-5-(trifluoromethyl)pyrimidine-2,4-diamine]"
8,4,"CNc1nc(Nc2cc(OC)c(C(=O)N(C)C)cc2OCF)ncc1C(F)(F)F [Compound 19, 5-(fluoromethoxy)-2-methoxy-N,N-dimethyl-4-(4-(methylamino)-5-(trifluoromethyl)pyrimidin-2-ylamino)benzamide]"
9,3.4,"CCNc1nc(Nc2cc(OCF)c(C(=O)N3CCCC3)cc2F)ncc1C(F)(F)F [Compound 16, (4-(4-(ethylamino)-5-(trifluoromethyl)pyrimidin-2-ylamino)-5-fluoro-2-(fluoromethoxy)phenyl)(pyrrolidin-1-yl)methanone]"
10,3.2,"CNc1nc(Nc2cc(OC)c(C(=O)N3CCCC3)cc2OCF)ncc1C(F)(F)F [Compound 14, (5-(fluoromethoxy)-2-methoxy-4-(4-(methylamino)-5-(trifluoromethyl)pyrimidin-2-ylamino)phenyl)(pyrrolidin-1-yl)methanone]"
11,2.3,"CNc1nc(Nc2ccc(C(=O)N3CCOCC3)cc2OCCF)ncc1C(F)(F)F [Compound 30, (3-(2-fluoroethoxy)-4-(4-(methylamino)-5-(trifluoromethyl)pyrimidin-2-ylamino)phenyl)(morpholino) methanone]"
12,2,"[2H]C([2H])(F)C([2H])([2H])n1ncc(Nc2ncc(C(F)(F)F)c(NC)n2)c1C [Compound 48, N2-(1-(2-fluoro-1,1,2,2-tetradeutero-ethyl)-5-methyl-1H-pyrazol-4-yl)-N4-methyl-5-(trifluoromethyl)pyrimidine-2,4-diamine]"
13,1.8,"CNc1nc(Nc2cnn(CCF)c2C)ncc1C(F)(F)F [Compound 36, N2-(1-(2-fluoroethyl)-5-methyl-1H-pyrazol-4-yl)-N4-methyl-5-(trifluoromethyl)pyrimidine-2,4-diamine]"
14,1.5,"CNc1nc(Nc2cc(OC)c(C(=O)N3CCC(F)(F)C3)cc2OCCF)ncc1C(F)(F)F [Compound 9, (3,3-difluoropyrrolidin-1-yl)(5-(2-fluoroethoxy)-2-methoxy-4-((4-(methylamino)-5-(trifluoromethyl)pyrimidin-2-yl)amino)phenyl)methanone]"
15,1.5,"CCNc1nc(Nc2cc(OCF)c(C(=O)N3CCCC3)cc2Cl)ncc1C(F)(F)F [Compound 5, (5-chloro-4-(4-(ethylamino)-5-(trifluoromethyl)pyrimidin-2-ylamino)-2-(fluoromethoxy)phenyl)(pyrrolidin-1-yl)methanone]"
16,1.1,"CNc1nc(Nc2cn(CCF)nc2C)ncc1C(F)(F)F [Compound 35, N2-(1-(2-fluoroethyl)-3-methyl-1H-pyrazol-4-yl)-N4-methyl-5-(trifluoromethyl)pyrimidine-2,4-diamine]"
17,1,"CNc1nc(Nc2cc(C)c(C(=O)N3CCOCC3)cc2OCF)ncc1C(F)(F)F [Compound 2, (5-(fluoromethoxy)-2-methyl-4-(4-(methylamino)-5-(trifluoromethyl)pyrimidin-2-ylamino)phenyl)(morpholino) methanone]"
18,0.7,"CNc1nc(Nc2cc(C)c(C(=O)N3CCCC3)cc2OCF)ncc1C(F)(F)F [Compound 7, (5-(fluoromethoxy)-2-methyl-4-(4-(methylamino)-5-(trifluoromethyl)pyrimidin-2-ylamino)phenyl)(pyrrolidin-1-yl)methanone]"
19,0.6,"O=C(c1cc(OCCF)c(Nc2ncc(C(F)(F)F)c(NC3CC3)n2)cc1F)N1CCOCC1 [Compound 1, (4-(4-(cyclopropylamino)-5-(trifluoromethyl)pyrimidin-2-ylamino)-2-fluoro-5-(2-fluoroethoxy)phenyl)(morpholino) methanone]"
